Reference: ChEMBL document CHEMBL5463729, “Data for DCP probe BAY 1753011” (2023)
Calls of active or inactive are those of the source. No cut-off for these calls is given here.

Columns and labels:
[1] = target: Mast/stem cell growth factor receptor Kit (Homo sapiens) (UniProt P10721); assay: Inhibition of cKit(h) at 10.0 µM in the Eurofins Kinase panel; conditions: Compound concentration 10.0 uM
[2] = target: T1, Alpha-2C adrenergic receptor (Homo sapiens) (UniProt P18825); conditions: Compound concentration 10.0 uM
T1 sequence (whole entry): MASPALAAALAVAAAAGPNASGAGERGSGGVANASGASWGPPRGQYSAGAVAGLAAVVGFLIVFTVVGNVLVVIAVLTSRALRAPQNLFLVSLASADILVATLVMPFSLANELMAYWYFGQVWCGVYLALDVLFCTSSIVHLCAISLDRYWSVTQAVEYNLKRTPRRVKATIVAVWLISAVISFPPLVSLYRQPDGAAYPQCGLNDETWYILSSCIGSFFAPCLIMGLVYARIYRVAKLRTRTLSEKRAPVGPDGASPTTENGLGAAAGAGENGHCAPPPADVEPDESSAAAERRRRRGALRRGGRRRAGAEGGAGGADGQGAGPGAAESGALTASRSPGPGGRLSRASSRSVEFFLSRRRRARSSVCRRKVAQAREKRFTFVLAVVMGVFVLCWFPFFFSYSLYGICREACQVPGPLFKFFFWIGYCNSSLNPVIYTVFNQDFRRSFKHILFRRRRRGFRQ

[3] = target: RAC-gamma serine/threonine-protein kinase (Homo sapiens) (UniProt Q9Y243); assay: Inhibition of PKBgamma(h) at 10.0 µM in the Eurofins Kinase panel; conditions: Compound concentration 10.0 uM
[4] = target: Activin receptor type-1-like (Homo sapiens) (UniProt P37023); assay: Inhibition of ALK1(h) at 10.0 µM in the Eurofins Kinase panel; conditions: Compound concentration 10.0 uM
[5] = target: T2, Alpha-2A adrenergic receptor (Homo sapiens) (UniProt P08913); conditions: Compound concentration 10.0 uM
T2 sequence (whole entry): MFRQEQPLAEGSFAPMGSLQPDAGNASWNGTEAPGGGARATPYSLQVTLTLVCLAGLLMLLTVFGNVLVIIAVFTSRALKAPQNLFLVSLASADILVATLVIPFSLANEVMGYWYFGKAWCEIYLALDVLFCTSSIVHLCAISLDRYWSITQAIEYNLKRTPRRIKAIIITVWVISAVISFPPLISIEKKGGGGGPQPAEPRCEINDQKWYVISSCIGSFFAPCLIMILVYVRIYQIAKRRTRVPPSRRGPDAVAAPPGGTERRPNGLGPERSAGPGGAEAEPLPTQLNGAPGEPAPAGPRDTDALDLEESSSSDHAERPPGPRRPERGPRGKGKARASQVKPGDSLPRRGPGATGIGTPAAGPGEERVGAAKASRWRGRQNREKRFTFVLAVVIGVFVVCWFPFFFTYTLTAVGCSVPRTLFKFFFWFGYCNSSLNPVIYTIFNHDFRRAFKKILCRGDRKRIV

Vasopressin V1a receptor = Vasopressin V1a receptor (Homo sapiens, UniProt P37288)
[6] = target: Rhodopsin kinase GRK7 (Homo sapiens) (UniProt Q8WTQ7); assay: Inhibition of GRK7(h) at 10.0 µM in the Eurofins Kinase panel; conditions: Compound concentration 10.0 uM
[7] = target: Proto-oncogene tyrosine-protein kinase Src (Homo sapiens) (UniProt P12931); assay: Inhibition of cSRC(h) at 10.0 µM in the Eurofins Kinase panel; conditions: Compound concentration 10.0 uM
[8] = target: Macrophage colony-stimulating factor 1 receptor (Homo sapiens) (UniProt P07333); assay: Inhibition of Fms(h) at 10.0 µM in the Eurofins Kinase panel; conditions: Compound concentration 10.0 uM
[9] = target: Muscarinic acetylcholine receptor M3 (Homo sapiens) (UniProt P20309); conditions: Compound concentration 10.0 uM
[10] = target: T3, Alpha-2B adrenergic receptor (Homo sapiens) (UniProt P18089); conditions: Compound concentration 10.0 uM
T3 sequence (whole entry): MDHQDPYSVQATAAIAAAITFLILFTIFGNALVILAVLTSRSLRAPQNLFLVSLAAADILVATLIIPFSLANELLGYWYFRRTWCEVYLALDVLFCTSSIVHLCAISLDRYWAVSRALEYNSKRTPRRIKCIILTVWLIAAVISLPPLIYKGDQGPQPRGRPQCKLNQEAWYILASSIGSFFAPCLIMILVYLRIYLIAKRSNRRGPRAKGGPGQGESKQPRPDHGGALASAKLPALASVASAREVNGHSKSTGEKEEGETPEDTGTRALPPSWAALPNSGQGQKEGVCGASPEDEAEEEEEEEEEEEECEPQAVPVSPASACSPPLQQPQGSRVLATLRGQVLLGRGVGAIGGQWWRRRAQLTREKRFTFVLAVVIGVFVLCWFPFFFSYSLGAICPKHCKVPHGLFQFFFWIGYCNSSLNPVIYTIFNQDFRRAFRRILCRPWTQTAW

[11] = target: Serine/threonine-protein kinase TBK1 (Homo sapiens) (UniProt Q9UHD2); assay: Inhibition of TBK1(h) at 10.0 µM in the Eurofins Kinase panel; conditions: Compound concentration 10.0 uM
[12] = target: Ribosomal protein S6 kinase alpha-5 (Homo sapiens) (UniProt O75582); assay: Inhibition of MSK1(h) at 10.0 µM in the Eurofins Kinase panel; conditions: Compound concentration 10.0 uM
[13] = target: Phosphorylase b kinase gamma catalytic chain, testis/liver isoform (Homo sapiens) (UniProt P15735); assay: Inhibition of PhKgamma2(h) at 10.0 µM in the Eurofins Kinase panel; conditions: Compound concentration 10.0 uM
[14] = target: Fibroblast growth factor receptor 2 (Homo sapiens) (UniProt P21802); assay: Inhibition of FGFR2(h) at 10.0 µM in the Eurofins Kinase panel; conditions: Compound concentration 10.0 uM
[15] = target: Serine/threonine-protein kinase N1 (Homo sapiens) (UniProt Q16512); assay: Inhibition of PRK1(h) at 10.0 µM in the Eurofins Kinase panel; conditions: Compound concentration 10.0 uM
Vasopressin V2 receptor = Vasopressin V2 receptor (Homo sapiens, UniProt P30518); assay: Radiometric AVPR2 binding assay (Eurofins #287610)
[16] = target: Dual specificity protein kinase TTK (Homo sapiens) (UniProt P33981); assay: Inhibition of TTK(h) at 10.0 µM in the Eurofins Kinase panel; conditions: Compound concentration 10.0 uM
[17] = target: Myotonin-protein kinase (Homo sapiens) (UniProt Q09013); assay: Inhibition of DMPK(h) at 10.0 µM in the Eurofins Kinase panel; conditions: Compound concentration 10.0 uM
[18] = target: Mu-type opioid receptor (Homo sapiens) (UniProt P35372); conditions: Compound concentration 10.0 uM
[19] = target: Serine/threonine-protein kinase MRCK gamma (Homo sapiens) (UniProt Q6DT37); assay: Inhibition of MRCKgamma(h) at 10.0 µM in the Eurofins Kinase panel; conditions: Compound concentration 10.0 uM
[20] = target: Protein kinase C alpha type (Homo sapiens) (UniProt P17252); assay: Inhibition of PKCalpha(h) at 10.0 µM in the Eurofins Kinase panel; conditions: Compound concentration 10.0 uM
[21] = target: Activin receptor type-2A (Homo sapiens) (UniProt P27037); assay: Inhibition of ACTR2(h) at 10.0 µM in the Eurofins Kinase panel; conditions: Compound concentration 10.0 uM

SMILES | inhibition [1] [%] | inhibition [2] [%] | inhibition [3] [%] | inhibition [4] [%] | inhibition [5] [%] | inhibition [6] [%] | inhibition [7] [%] | inhibition [8] [%] | inhibition [9] [%] | inhibition [10] [%] | inhibition [11] [%] | inhibition [12] [%] | inhibition [13] [%] | inhibition [14] [%] | inhibition [15] [%] | Ki (Vasopressin V2 receptor) | inhibition [16] [%] | inhibition [17] [%] | inhibition [18] [%] | inhibition [19] [%] | also measured
O=c1n(Cc2cncn2-c2cccc(Cl)c2)nc(-c2ccc(Cl)cc2)n1C[C@H](O)C(F)(F)F | 7.72 | -9.85 | 2.13 | -1.34 | 5 | -3.6 | 0.88 | 5.33 | 4 | 2 | 7.19 | -0.53 | -3.49 | -6.43 | -8.29 | > 10 µM (not active) | -7.11 | 4.48 | -6 | 1.06 | inhibition (Vasopressin V1a receptor; Compound concentration 10.0 uM): 28%; inhibition [20]: 2.18%; inhibition [21]: 6.32%
C[C@H](O)c1nc(Cn2nc(-c3ccc(Cl)cc3)n(C[C@H](O)C(F)(F)F)c2=O)nn1-c1cccc(Cl)c1 [PECAVAPTAN] | 4.28 | -2.74 | -6.69 | -9.71 | 3 | 0.06 | -5.76 | -2.47 | 8 | 8 | -2.96 | -5.91 | 0.74 | -7.72 | -3.85 | 0.0006 µM (active) | 2.07 | 12.7 | 24 | 2.11 | inhibition (Vasopressin V1a receptor; Compound concentration 0.01 uM): 65%; inhibition [20]: 1.13%; inhibition [21]: 5.43%
